Reference: patent US20250154112A1, “A PREPARATION OF QUINAZOLINEDIONES AND USE THEREOF” (COUNCIL OF SCIENTIFIC AND INDUSTRIAL RESEARCH AN INDIAN …, priority 2021, published 2025)
≈ marks a conversion by molar mass, not a printed value.

Experiments:
[1] = test system: ATGL; test: Western blot of ATGL level in HepG2 cells after compound treatment; format: cell-based; settings: 24 hours; for ATGL level (Western Blot): 50 nM to 5 μM dose dependent, with respect to control; for induction of ATGL (Western Blot): 5 μM
Experimental: (§1) HepG2 cells were treated with the compounds 5, 8, 11, 59, 62, 91, 94 (50 nM, 100 nM, 200 nM, 500 nM, 1 μM and 5 μM for dose dependent assays) for 24 hours. After removing media from the cells, the wells were washed with 1×PBS twice to remove any remnant media. Cells were then lysed in lysis buffer containing 50 mM Tris-HCl (pH 7.4), 100 mM NaCl, 1 mM EDTA, 1 mM EGTA, 1% Triton X-100 and protease inhibitor cocktail (Millipore, Billierica, MA, USA). Following centrifugation at 20,000 g for 20 minutes, the protein solution was extracted from the cells. Protein was estimated using Bradford assay. Bradford's reagent (BioRad) was diluted in 1:4 ratio in double distilled water. 2 μl of protein sample was added to 100 μl of the reagent and absorbance was measured at 595 nm. 30 μg of protein was diluted in lysis buffer. 1X loading buffer diluted from 5X stock containing 250 mM Tris-HCl (pH 6.8), 10% SDS, 50% glycerol, 0.1% bromophenol Blue and 10% β-mercaptoethanol was added. The protein samples were then heated at 95° C. for 10 minutes, cooled and centrifuged at 12,000 g for 2 minutes prior to loading.
(§2) For western blotting, the proteins were resolved in 10% SDS PAGE (discontinuous buffer system). 1X running buffer containing SDS, Tris Base and Glycine was used to run the gel at 80V for approximately 2 hours. Transfer was done using PVDF membrane (Millipore) having pore size of 0.45 μm. 1X transfer buffer containing Tris-Base, Glycine and 20% methanol was used for wet transfer. Transfer was done at 90V for 3 hours. Following transfer, the PVDF membrane containing the proteins were washed in 1×PBST comprising of 1×PBS and 1% Tween 20 (Sigma Aldrich). The membrane was then incubated for 1 hour at room temperature in 5% skim milk powder to block the non-specific sites. Following multiple washes with 1×PBST to wash away any remaining blocking buffer, the required primary antibody (COP1 [BethylLaboraties], ATGL [Cell Signalling Technology] or Actin[Cell Signalling Technology]) prepared with 1×PBST, 1% Bovine Serum Albumin and 0.04% Sodium Azide was added to the membrane and incubated overnight at 4° C. The next day, the membrane was again washed multiple times with 1×PBST to remove any unbound primary antibody. The membrane was then incubated with goat anti-rabbit secondary antibody (Genei) for 1 hour at room temperature and washed again for multiple times with 1×PBST. The membrane was then developed using Clarity™ ECL Western Blotting Substrate (BioRad) and viewed in ChemiDoc (BioRad).
as §1, with “62, 65,” for “62,”, “at” for “(50 nM, 100 nM, 200 nM, 500 nM, 1 μM and”, “μM” for “μM for dose dependent assays)”, “cocktail 1” for “cocktail”

[2] = target: T1, COP1 (Homo sapiens, UniProt Q8NHY2); test: Western blot of COP1 level in HepG2 cells after compound treatment; format: cell-based; settings: 5 μM, 24 hours
T1 construct: endogenous in cells; host or cells: HepG2
Experimental: as §1, with “62, 65,” for “62,”, “at” for “(50 nM, 100 nM, 200 nM, 500 nM, 1 μM and”, “μM” for “μM for dose dependent assays)”, “cocktail 1” for “cocktail”
as §2

[3] = Determination of EC50 (in-vitro)
[4] = test system: ATGL; test: Fold change in ATGL by densitometric analysis; format: cell-based; settings: fold change of ATGL with respect to control, normalized with actin
Experimental: Densitimetric analysis was performed by image J to calculate the fold change of ATGL with respect to control. The values were normalized with actin.

[5] = Lipophilicity assay (octanol/buffer Log D); format: physicochemical; settings: pH 7.4, n-octanol/sodium phosphate buffer
Experimental: 1.56 g NaH2PO4·2H2O was dissolved in 0.5 L water in a 1 L beaker. After adjusting pH to 7.4 using NaOH solution, the volume was made up to 1 L. Equal volumes of sodium phosphate buffer (10 mM, pH 7.4) and n-octanol were added to a separation funnel and mixed thoroughly by shaking and inverting the funnel several times. The two layers were allowed to separate for overnight and then dispensed in two separate glass bottles. 10 mM stock solution was prepared in 100% DMSO and stored at 4° C. 495 μL of organic phase (1-octanol) was added to each well of a 2 mL deep well plate, followed by 495 μL of buffer and 10 μL of test substance was added. The plate was incubated for 3 hrs at room temperature on a plate shaker at 500 rpm. After incubation, the samples were allowed to equilibrate for 20 min and then centrifuged at 4000 rpm for 30 min for complete phase separation and analysed by LC-UV. Log D=Log (area of octanol/area of buffer)

[6] = Plasma stability assay; format: in vitro ADME; settings: 1 μM, 37° C.
Experimental: 1 mM Stock of test compound was prepared from 10 mM initial stock solution of compounds by diluting 10 μL of 10 mM stock with 90 μL of DMSO. Then 10 μL of 1 mM stock was diluted with 90 μL of DMSO to give 100 μM concentration. The frozen plasma was thawed at room temperature and centrifuged at 1400 rpm at 4° C., for 15 minutes. Approximately 90% of the clear supernatant fraction was transferred to a separate tube and was used for the assay. Final working stock of 1 μM was prepared by diluting 3 μL of 100 μM with 297 μL of plasma. Plasma containing the test compound was incubated for 120 min at 37° C. in shaker with 500 rpm. 50 μL of aliquot of sample at 0, 15, 30, 60 and 120 minutes were precipitated with 150 μL of acetonitrile containing internal standard and centrifuged at 4000 rpm at 4° C. for 20 minutes. 120 μL of supernatant was diluted with 120 μL of water and analysed by LC-MS/MS.

[7] = Metabolic stability using human liver microsomes (HLM); format: in vitro ADME
Experimental: 1 mM stock solution of test compound was prepared in DMSO and diluted with Acetonitrile:Water (1:1) to get a 100 μM working concentration. 100 mL of Milli Q water was added to K2HPO4 (1.398 g) and KH2PO4 (0.27 g) to get final pH 7.4 solution of potassium phosphate buffer. […] The above mixture was pre incubated for 15 minutes at 37° C. After pre incubation, 32.5 μL of the mixture was added to 17.5 μL of buffer, this was incubated for 60 minutes at 37° C. [60 min Without Cofactor (NADPH)]. 16.25 μL of the pre incubated mixture and 8.75 μL of cofactor was added to 150 μL of acetonitrile containing internal standard [0 min Sample]. 62 μL of cofactor was added to remaining pre incubation mixture [Incubation mixture]. 25 μL of incubation mixture at 0, 5, 15, 30, 60 min and 60 min without cofactor were precipitated with 150 μL of acetonitrile containing internal standard, vortexed and centrifuged at 4000 rpm at 4° C. for 20 minutes. 120 μL of supernatant was diluted with 120 μL of water and analyzed by LC-MS/MS [sample preparation].

[8] = Kinetic solubility; format: physicochemical; settings: pH 7.4 phosphate buffer (PBS), aqueous buffer, kinetic from dmso stock, room temperature, 1.0% DMSO
Experimental: PBS sachet was dissolved in 0.9 L of Milli Q water and pH was adjusted to 7.4. Final volume was made up to 1 L with the water and stored at ambient temperature 21-25° C. […] 4 μL from the 50 mM stock solution were added to deep well plate containing 396 μL of pH 7.4 phosphate buffer, mixed and incubated for 24 hours at room temperature with constant mixing at 300 rpm. The plate was sealed well during the incubation process. After incubation, the samples were centrifuged for 20 min at 4000 rpm. The supernatant was analysed by HPLC-UV. The DMSO content in the sample was 1.0%. The final concentration of the compound in deep well plate was 500 μM.

T1 sequence (Q8NHY2 whole entry): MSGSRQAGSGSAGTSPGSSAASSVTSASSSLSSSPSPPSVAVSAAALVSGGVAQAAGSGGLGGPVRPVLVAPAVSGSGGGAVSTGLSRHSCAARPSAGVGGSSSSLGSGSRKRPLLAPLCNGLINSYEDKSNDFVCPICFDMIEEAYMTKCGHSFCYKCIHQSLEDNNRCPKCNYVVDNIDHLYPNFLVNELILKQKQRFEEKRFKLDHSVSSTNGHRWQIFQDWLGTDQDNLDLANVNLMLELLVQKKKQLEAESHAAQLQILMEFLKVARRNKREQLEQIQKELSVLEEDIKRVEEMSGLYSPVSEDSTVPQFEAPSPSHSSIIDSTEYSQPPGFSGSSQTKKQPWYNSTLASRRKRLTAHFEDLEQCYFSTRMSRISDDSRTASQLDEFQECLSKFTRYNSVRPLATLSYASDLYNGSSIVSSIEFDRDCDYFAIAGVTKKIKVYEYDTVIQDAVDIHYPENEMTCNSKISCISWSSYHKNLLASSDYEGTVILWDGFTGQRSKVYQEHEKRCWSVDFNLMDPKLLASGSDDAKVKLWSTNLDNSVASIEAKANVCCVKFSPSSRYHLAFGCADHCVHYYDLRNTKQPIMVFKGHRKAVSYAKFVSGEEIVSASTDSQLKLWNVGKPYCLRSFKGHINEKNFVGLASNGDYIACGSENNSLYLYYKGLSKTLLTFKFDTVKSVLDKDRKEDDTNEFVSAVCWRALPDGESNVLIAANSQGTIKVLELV

| SMILES | ATGL level (Western Blot) [1] | induction of ATGL (Western Blot) [1] | stabilization of COP1 (Western Blot) [2] | EC50 [3] [nM] | Fold change [4] | LogD @ pH 7.4 [5] | Mean % remaining at 2 hrs in human Plasma [6] [%] | % QH (Well stirred model) [7] [%] | solubility kinetic at 24 hours [8] [µg/mL] | logD [5] |
| --- | --- | --- | --- | --- | --- | --- | --- | --- | --- | --- |
| COCCn1c(=O)c2cc(NC(=O)Nc3cccc(C(C)=O)c3)ccc2n(C(C)C)c1=O [Compound 11, 1-(3-acetylphenyl)-3-(1-isopropyl-3-(2-methoxyethyl)-2,4-dioxo-1,2,3,4-tetrahydroquinazolin-6-yl)urea] | increased ATGL level | ability to induce ATGL | stabilize the COP1 | 100 | 1.25 | 2.67 | 80.80 | 40.30 | 2.8 (≈ 6.39 µM) |  |
| COCCc1ccc(OCC(O)CNC(C)C)cc1 (stereo not shown) [Metroprolol, reference compound] |  |  |  |  |  | −0.04 |  |  |  |  |
| CC(C)[N+](C)(CCOC(=O)C1c2ccccc2Oc2ccccc21)C(C)C [Propantheline, reference compound] |  |  |  |  |  |  | 1.70 |  |  |  |
| COCCn1c(=O)c2cc(NC(=O)Nc3cccc(C(C)=O)c3)ccc2n(CCCN2CCCCC2)c1=O [Compound 91, 1-(3-acetylphenyl)-3-(3-(2-methoxyethyl)-2,4-dioxo-1-(3-(piperidin-1-yl)propyl)-1,2,3,4-tetrahydroquinazolin-6-yl)urea] | increased ATGL level | ability to induce ATGL | stabilize the COP1 |  | 1.17 |  |  |  |  |  |
| COCCn1c(=O)c2cc(NC(=O)Nc3cccc(C(C)=O)c3)ccc2n(CCN2CCCC2)c1=O [Compound 59, 1-(3-acetylphenyl)-3-(3-(2-methoxyethyl)-2,4-dioxo-1-(2-(pyrrolidin-1-yl)ethyl)-1,2,3,4-tetrahydroquinazolin-6-yl)urea] | increased ATGL level | ability to induce ATGL | stabilize the COP1 | 209 | 1.18 | 2.58 | 32.80 | 17.46 | 124 (≈ 252 µM) |  |
| COCCn1c(=O)c2cc(NC(=O)Nc3cccc(C(C)=O)c3)ccc2n(C)c1=O [Compound 8, 1-(3-acetylphenyl)-3-(3-(2-methoxyethyl)-1-methyl-2,4-dioxo-1,2,3,4-tetrahydroquinazolin-6-yl)urea] | increased ATGL level | ability to induce ATGL | stabilize the COP1 | 17.8 | 1.34 |  |  |  |  |  |
| COCCn1c(=O)c2cc(NC(=O)Nc3cccc(C(C)=O)c3)ccc2n(CCN2CCOCC2)c1=O [Compound 65, 1-(3-acetylphenyl)-3-(3-(2-methoxyethyl)-1-(2-morpholinoethyl)-2,4-dioxo-1,2,3,4-tetrahydroquinazolin-6-yl)urea] |  | ability to induce ATGL | stabilize the COP1 | 50 | 1.44 |  | 48.20 | 62.0 | 20.8 (≈ 40.8 µM) | 2.08 |
